The target of assay [1] is IL-17A(FLAG-Tagged): IL-17RA(His-Tagged) (Homo sapiens, UniProt Q16552, K93Q). As to the kind of experiment: IL-17A(FLAG-Tagged): IL-17RA(His-Tagged) Binding Disruption Eu-HTRF Assay. As to conditions: IL-17A/IL-17RA binding disruption, simple average if tested more than once. A digest of the protocol:
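IC50 comes from a one-site competition fit of the HTRF 665/620 nm ratio. Compound dilutions (2-fold, 22 points) were held 1 h rt with FLAG-tagged IL-17A dimer, then His-tagged IL-17RA plus Eu-cryptate anti-FLAG and D2 anti-His antibodies were added for 2 h rt.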

Assay [2] relates to IL-17A-induced G-CSF production in human normal keratinocyte (NHK). As to the kind of experiment: NHK Assay: IL-17A-induced G-CSF production in human normal keratinocytes. The assay is classed as cell-based. To be noted: 24 h, adult normal human keratinocytes, IL-17A 5 ng/mL, simple average if tested more than once. A digest of the protocol:
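HTRF read-out of supernatant G-CSF, quantified from a standard curve, gave IC50 values. Adult keratinocytes, 3000-4000 cells/well, received human IL-17A (5 ng/mL final) pre-mixed 1 h at rt with compound, in 5% FBS and 0.2% DMSO, 24 h at 37° C.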

Molecules are shown by their SMILES. pIC50: −log10 of the molar value.

Sequence of UniProt Q16552 (Q16552 with tags, fused parts or gaps K93Q): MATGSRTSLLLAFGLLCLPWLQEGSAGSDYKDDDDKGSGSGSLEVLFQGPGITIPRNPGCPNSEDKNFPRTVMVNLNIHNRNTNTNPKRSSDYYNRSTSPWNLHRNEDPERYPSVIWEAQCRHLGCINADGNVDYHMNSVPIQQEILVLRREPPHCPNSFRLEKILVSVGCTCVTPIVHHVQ

`O=C(CC1CC(F)(F)C1)NC(c1cnn2cc([C@@H](NC(=O)c3nonc3C3CC3)C3CCC(F)(F)CC3)nc2c1)C(F)(F)F` (single isomer, unassigned) [Example 421, 4-Cyclopropyl-N—((S)-(7-((S*)-1-(2-(3,3-difluorocyclobutyl)acetamido)-2,2,2-trifluoroethyl)imidazo[1,2-b]pyridazin-2-yl)(4,4-difluorocyclohexyl)methyl)-1,2,5-oxadiazole-3-carboxamide]: the pIC50 in assay [1] was 7.01; in assay [2] (Homo sapiens, Keratinocyte), 7.37.
Consider `CC(C)n1nccc1C(=O)N[C@H](c1cn2ncc(C(NC(=O)CC3CC(F)(F)C3)C(F)(F)F)cc2n1)C1CCC(F)(F)CC1` (single isomer, unassigned) [Example 422, N—((S)-(7-((S*)-1-(2-(3,3-Difluorocyclobutyl)acetamido)-2,2,2-trifluoroethyl)imidazo[1,2-b]pyridazin-2-yl)(4,4-difluorocyclohexyl)methyl)-1-isopropyl-1H-pyrazole-5-carboxamide], for which the pIC50 in assay [1] was 6.59; in assay [2] (Homo sapiens, Keratinocyte), 7.09.
As for `Cc1nonc1C(=O)N[C@H](c1cn2ncc(C(NC(=O)CC3CC(F)(F)C3)C3(C#N)CC3)cc2n1)C1CCC(F)(F)CC1` (single isomer, unassigned) [Example 423, N—((S)-(7-((S*)-(1-Cyanocyclopropyl)(2-(3,3-difluorocyclobutyl)acetamido)methyl)imidazo[1,2-b]pyridazin-2-yl)(4,4-difluorocyclohexyl)methyl)-4-methyl-1,2,5-oxadiazole-3-carboxamide], the negative logarithm of the IC50 (pIC50) was 7.11 in assay [1] and 6.89 in assay [2] (Homo sapiens, Keratinocyte).
`N#CC1(C(NC(=O)CC2CC(F)(F)C2)c2cnn3cc([C@@H](NC(=O)c4nonc4C4CC4)C4CCC(F)(F)CC4)nc3c2)CC1` (single isomer, unassigned) [Example 424, N—((S)-(7-((S*)-(1-Cyanocyclopropyl)(2-(3,3-difluorocyclobutyl)acetamido)methyl)imidazo[1,2-b]pyridazin-2-yl)(4,4-difluorocyclohexyl)methyl)-4-cyclopropyl-1,2,5-oxadiazole-3-carboxamide]: the pIC50 in assay [1] is 7.33; in assay [2] it was 7.40.
Regarding `N#CC1(C(NC(=O)CC2CC(F)(F)C2)c2cnn3cc([C@@H](NC(=O)c4nonc4OCC(F)F)C4CCC(F)(F)CC4)nc3c2)CC1` (single isomer, unassigned) [Example 425, N—((S)-(7-((S*)-(1-Cyanocyclopropyl)(2-(3,3-difluorocyclobutyl)acetamido)methyl)imidazo[1,2-b]pyridazin-2-yl)(4,4-difluorocyclohexyl)methyl)-4-(2,2-difluoroethoxy)-1,2,5-oxadiazole-3-carboxamide], the negative logarithm of the IC50 (pIC50) in assay [1] was 7.00; in assay [2] it was 7.70.
In the case of `CC(C)n1nccc1C(=O)N[C@H](c1cn2ncc(C(NC(=O)CC3CC(F)(F)C3)C3(C#N)CC3)cc2n1)C1CCC(F)(F)CC1` (single isomer, unassigned) [Example 426, N—((S)-(7-((S*)-(1-Cyanocyclopropyl)(2-(3,3-difluorocyclobutyl)acetamido)methyl)imidazo[1,2-b]pyridazin-2-yl)(4,4-difluorocyclohexyl)methyl)-1-isopropyl-1H-pyrazole-5-carboxamide], the negative logarithm of the IC50 (pIC50) was 6.47 in assay [1] and 7.00 in assay [2].
The like results for `Cc1nonc1C(=O)N[C@H](c1cn2ncc(C(NC(=O)CC3(C(F)(F)F)CC3)C3(C#N)CC3)cc2n1)C1CCC(F)(F)CC1` (single isomer, unassigned) [Example 427, N—((S)-(7-((S*)-(1-Cyanocyclopropyl)(2-(1-(trifluoromethyl)cyclopropyl)acetamido)methyl)imidazo[1,2-b]pyridazin-2-yl)(4,4-difluorocyclohexyl)methyl)-4-methyl-1,2,5-oxadiazole-3-carboxamide] were, in that order, 7.00 and 6.43.
With `CC(C)n1nccc1C(=O)N[C@H](c1cn2ncc(C(NC(=O)CC3(C(F)(F)F)CC3)C3(C#N)CC3)cc2n1)C1CCC(F)(F)CC1` (single isomer, unassigned) [Example 428, N—((S)-(7-((S*)-(1-Cyanocyclopropyl)(2-(1-(trifluoromethyl)cyclopropyl)acetamido)methyl)imidazo[1,2-b]pyridazin-2-yl)(4,4-difluorocyclohexyl)methyl)-1-isopropyl-1H-pyrazole-5-carboxamide], the pIC50 is 6.43 in assay [1] and 6.92 in assay [2].
`N#CC1(C(NC(=O)CC2CC(F)(F)C2)c2cnn3cc([C@@H](NC(=O)c4nonc4C4CC4)C4CCC(F)(F)CC4)nc3c2)CC1` (single isomer, unassigned) [Example 429, N—((S)-(7-((R*)-(1-Cyanocyclopropyl)(2-(3,3-difluorocyclobutyl)acetamido)methyl)imidazo[1,2-b]pyridazin-2-yl)(4,4-difluorocyclohexyl)methyl)-4-cyclopropyl-1,2,5-oxadiazole-3-carboxamide]: the figures for the pIC50 in assay [1] and in assay [2] were 5.70 and less than 4.70, respectively.
`N#CC1(C(NC(=O)CC2CC(F)(F)C2)c2cnn3cc([C@@H](NC(=O)c4nonc4OCC(F)F)C4CCC(F)(F)CC4)nc3c2)CC1` (single isomer, unassigned) [Example 430, N—((S)-(7-((R*)-(1-Cyanocyclopropyl)(2-(3,3-difluorocyclobutyl)acetamido)methyl)imidazo[1,2-b]pyridazin-2-yl)(4,4-difluorocyclohexyl)methyl)-4-(2,2-difluoroethoxy)-1,2,5-oxadiazole-3-carboxamide]: the pIC50 in assay [1] is 5.80; in assay [2], 4.92.
As for `CC(C)n1nccc1C(=O)N[C@H](c1cn2ncc(C(NC(=O)CC3CC(F)(F)C3)C3(C#N)CC3)cc2n1)C1CCC(F)(F)CC1` (single isomer, unassigned) [Example 431, N—((S)-(7-((R*)-(1-Cyanocyclopropyl)(2-(3,3-difluorocyclobutyl)acetamido)methyl)imidazo[1,2-b]pyridazin-2-yl)(4,4-difluorocyclohexyl)methyl)-1-isopropyl-1H-pyrazole-5-carboxamide], the negative logarithm of the IC50 (pIC50) is 5.42 in assay [1] and less than 4.70 in assay [2].
Turning to `Cc1nonc1C(=O)N[C@H](c1cn2ncc(C(NC(=O)CC3(C(F)(F)F)CC3)C3(C#N)CC3)cc2n1)C1CCC(F)(F)CC1` (single isomer, unassigned) [Example 432, N—((S)-(7-((R*)-(1-Cyanocyclopropyl)(2-(1-(trifluoromethyl)cyclopropyl)acetamido)methyl)imidazo[1,2-b]pyridazin-2-yl)(4,4-difluorocyclohexyl)methyl)-4-methyl-1,2,5-oxadiazole-3-carboxamide], the negative logarithm of the IC50 (pIC50) was 5.43 in assay [1] and less than 4.70 in assay [2].
Turning to `N#CC1(C(NC(=O)CC2(C(F)(F)F)CC2)c2cnn3cc([C@@H](NC(=O)c4nonc4C4CC4)C4CCC(F)(F)CC4)nc3c2)CC1` (single isomer, unassigned) [Example 433, N—((S)-(7-((R*)-(1-Cyanocyclopropyl)(2-(1-(trifluoromethyl)cyclopropyl)acetamido)methyl)imidazo[1,2-b]pyridazin-2-yl)(4,4-difluorocyclohexyl)methyl)-4-cyclopropyl-1,2,5-oxadiazole-3-carboxamide], the pIC50 was 5.89 in assay [1] and less than 4.70 in assay [2] (Homo sapiens, Keratinocyte).
In the case of `CC(C)n1nccc1C(=O)N[C@H](c1cn2ncc(C(NC(=O)CC3(C(F)(F)F)CC3)C3(C#N)CC3)cc2n1)C1CCC(F)(F)CC1` (single isomer, unassigned) [Example 434, N—((S)-(7-((R*)-(1-Cyanocyclopropyl)(2-(1-(trifluoromethyl)cyclopropyl)acetamido)methyl)imidazo[1,2-b]pyridazin-2-yl)(4,4-difluorocyclohexyl)methyl)-1-isopropyl-1H-pyrazole-5-carboxamide], the values for the negative-log IC50 (pIC50) in assay [1] and in assay [2] were 5.48 and less than 4.70, respectively.
Turning to `Cc1nonc1C(=O)N[C@H](c1cn2ncc(C(NC(=O)C(F)(F)CC3CC3)C3(C#N)CC3)cc2n1)C1CCC(F)(F)CC1` (single isomer, unassigned) [Example 435, N—((S)-(7-((R*)-(1-Cyanocyclopropyl)(3-cyclopropyl-2,2-difluoropropanamido)methyl)imidazo[1,2-b]pyridazin-2-yl)(4,4-difluorocyclohexyl)methyl)-4-methyl-1,2,5-oxadiazole-3-carboxamide], the pIC50 in assay [1] is 5.42; in assay [2] (Homo sapiens, Keratinocyte) it was less than 4.70.
Turning to `N#CC1(C(NC(=O)C(F)(F)CC2CC2)c2cnn3cc([C@@H](NC(=O)c4nonc4C4CC4)C4CCC(F)(F)CC4)nc3c2)CC1` (single isomer, unassigned) [Example 436, N—((S)-(7-((R*)-(1-Cyanocyclopropyl)(3-cyclopropyl-2,2-difluoropropanamido)methyl)imidazo[1,2-b]pyridazin-2-yl)(4,4-difluorocyclohexyl)methyl)-4-cyclopropyl-1,2,5-oxadiazole-3-carboxamide], the pIC50 in assay [1] is 5.89; in assay [2] (Homo sapiens, Keratinocyte) it was less than 4.70.
As for `CC(C)n1nccc1C(=O)N[C@H](c1cn2ncc(C(NC(=O)C(F)(F)CC3CC3)C3(C#N)CC3)cc2n1)C1CCC(F)(F)CC1` (single isomer, unassigned) [Example 437, N—((S)-(7-((R*)-(1-Cyanocyclopropyl)(3-cyclopropyl-2,2-difluoropropanamido)methyl)imidazo[1,2-b]pyridazin-2-yl)(4,4-difluorocyclohexyl)methyl)-1-isopropyl-1H-pyrazole-5-carboxamide], the pIC50 in assay [1] was 5.42; in assay [2] (Homo sapiens, Keratinocyte) it was less than 4.70.

(Values after patent US11702422B2, “Imidazopyridazines as modulators of IL-17” (Janssen Pharmaceutica NV, priority 2020, dated 2023).)
